# Laboratory results: the supplement of paper PMC11061612
# Columns and labels:
# [1] = test system: 647-V (Bladder Carcinoma); experiment: Bliss excess, mean over the matrix (fraction); higher = more synergy
# Outline: (§1)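 Cell lines in DMEM/F12 or RPMI with 10% FBS were plated in 1536-well plates, held 24 hours at 37°C, 5% CO2, then given two-drug dose matrices for 72 hours (DMSO typically 0.2%). Viability was read by CellTiter-Glo 2.0 luminescence and scaled as inhibition from 0 (vehicle wells) to 1 (blank wells). Combination Emax is the second-highest inhibition in the matrix; Bliss excess is observed combination effect minus expected EA + EB − EA·EB, EA and EB being single-agent effects.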
# [2] = test system: KG-1 (Acute Myeloid Leukemia); experiment: as above
# Outline: as §1
# [3] = test system: NCI-H1688 (Small Cell Lung Carcinoma); experiment: as above
# Outline: as §1
# [4] = test system: NOMO-1 (Acute Myeloid Leukemia); experiment: as above
# Outline: as §1
# [5] = test system: RCC10RGB (Kidney Carcinoma); experiment: as above
# Outline: as §1
# [6] = test system: SNU-61 (Colorectal Carcinoma); experiment: as above
# Outline: as §1
# A172 (Glioblastoma) = experiment: combination Emax (second highest fraction inhibited in the dose matrix, 72 h); higher = more inhibition; extreme values may be limits of the assay
# Outline: as §1
# [7] = test system: BICR78 (Oral Cavity Carcinoma); experiment: as above
# Outline: as §1
# CS1 (Chondrosarcoma) = experiment: as above
# Outline: as §1
# [8] = test system: EFM-192A (Breast Carcinoma); experiment: as above
# Outline: as §1
# EW-22 (Ewing's Sarcoma) = experiment: as above
# Outline: as §1
# [9] = test system: HCC-827 (Lung Adenocarcinoma); experiment: as above
# Outline: as §1
# HCC38 (Breast Carcinoma) = experiment: as above
# Outline: as §1
# HuO9 (Osteosarcoma) = experiment: as above
# Outline: as §1
# MSTO-211H (Mesothelioma) = experiment: as above
# Outline: as §1
# [10] = test system: P31-FUJ (Acute Myeloid Leukemia); experiment: as above
# Outline: as §1
# SK-MEL-1 (Melanoma) = experiment: as above
# Outline: as §1
# [11] = test system: SW48 (Colorectal Carcinoma); experiment: as above
# Outline: as §1
# [12] = test system: WSU-DLCL2 (B-Cell Non-Hodgkin's Lymphoma); experiment: as above
# Outline: as §1
# 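Wherever Bliss excess, mean over the matrix is given: after 72 h of two-drug dosing.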
SMILES,Bliss excess [1],Bliss excess [2],Bliss excess [3],Bliss excess [4],Bliss excess [5],Bliss excess [6],combination Emax (A172 (Glioblastoma)),combination Emax [7],combination Emax (CS1 (Chondrosarcoma)),combination Emax [8],combination Emax (EW-22 (Ewing's Sarcoma)),combination Emax [9],combination Emax (HCC38 (Breast Carcinoma)),combination Emax (HuO9 (Osteosarcoma)),combination Emax (MSTO-211H (Mesothelioma)),combination Emax [10],combination Emax (SK-MEL-1 (Melanoma)),combination Emax [11],combination Emax [12]
"CC(=O)c1c(C)c2cnc(Nc3ccc(N4CCNCC4)cn3)nc2n(C2CCCC2)c1=O [Palbociclib] + Cn1cnc2c(F)c(Nc3ccc(Br)cc3Cl)c(C(=O)NOCCO)cc21 [Selumetinib] (first compound max 10 µM, 7x7, partner max 10 µM)",-0.035,-0.0108,-0.0471,-0.014,-0.0121,0.0179,0.425,0.315,0.408,0.169,0.25,0.22,0.139,0.419,0.137,0.475,0.83,0.626,0.834
"C[C@@H](c1ccc2nccn2c1)n1nnc2ncc(-c3cnn(C)c3)nc21 [Savolitinib] + CC1(C)CCC(CN2CCN(c3ccc(C(=O)NS(=O)(=O)c4ccc(NCC5CCOCC5)c([N+](=O)[O-])c4)c(Oc4cnc5[nH]ccc5c4)c3)CC2)=C(c2ccc(Cl)cc2)C1 [Venetoclax] (first compound max 1 µM, 7x7, partner max 1 µM)",-0.057,-0.015,-0.047,-0.0561,-0.0768,-0.0709,0.145,0.201,0.343,0.174,0.173,0.266,0.158,0.197,0.114,0.372,0.158,0.177,0.304
"C[C@@H](c1ccc2nccn2c1)n1nnc2ncc(-c3cnn(C)c3)nc21 [Savolitinib] + Cc1c2c(nn1C)CSCc1cc(n(C)n1)CSc1cc(c3ccccc3c1)OCCCc1c(C(=O)O)n(C)c3c-2c(Cl)ccc13 [AZD5991] (first compound max 1 µM, 7x7, partner max 1 µM)",-0.0594,-0.0383,0.0064,0.0497,-0.0371,-0.0429,0.112,0.231,0.266,0.587,0.271,0.283,0.207,0.739,0.123,0.94,0.0746,0.24,0.985
"Cn1cnc2c(F)c(Nc3ccc(Br)cc3Cl)c(C(=O)NOCCO)cc21 [Selumetinib] + C=CCn1c(=O)c2cnc(Nc3ccc(N4CCN(C)CC4)cc3)nc2n1-c1cccc(C(C)(C)O)n1 [AZD1775] (first compound max 10 µM, partner max 1 µM)",-0.0359,0.0445,-0.115,-0.0509,-0.0703,-0.0358,0.365,0.344,0.386,0.248,0.573,0.377,0.377,0.747,0.442,0.935,0.896,0.433,0.961
"Cn1cnc2c(F)c(Nc3ccc(Br)cc3Cl)c(C(=O)NOCCO)cc21 [Selumetinib] + CC(C)n1c(=O)n(C)c2cnc3cc(F)c(-c4ccc(OCCCN5CCCCC5)nc4)cc3c21 [AZD1390] (first compound max 10 µM, 7x7, partner max 0.3 µM)",-0.0481,0.0053,-0.016,-0.0617,-0.0004,0.0043,0.257,0.3,0.256,0.103,0.128,0.195,0.116,0.626,0.162,0.555,0.838,0.38,0.14
"Cn1cnc2c(F)c(Nc3ccc(Br)cc3Cl)c(C(=O)NOCCO)cc21 [Selumetinib] + CCN(CCO)CCCOc1ccc2c(Nc3cc(CC(=O)Nc4cccc(F)c4)[nH]n3)ncnc2c1 [AZD2811] (first compound max 10 µM, 7x7, partner max 1 µM)",-0.0038,0.0789,-0.0377,0.0333,-0.0658,-0.0026,0.416,0.322,0.266,0.167,0.695,0.277,0.133,0.242,0.318,0.951,0.863,0.989,0.127
"Cn1cnc2c(F)c(Nc3ccc(Br)cc3Cl)c(C(=O)NOCCO)cc21 [Selumetinib] + C[C@@H]1COCCN1C2=NC(=NC(=C2)C3(CC3)[S@](=N)(=O)C)C4=C5C=CNC5=NC=C4 [AZD6738] (first compound max 10 µM, 7x7, partner max 10 µM)",0.0218,0.0218,-0.0217,-0.0299,0.119,0.065,0.549,0.592,0.472,0.135,0.855,0.413,0.373,0.726,0.396,0.948,0.922,0.723,0.762
